Reference: ChEMBL document CHEMBL1201862, “PubChem BioAssay data set” (2004)
Active and inactive are the calls of the source.

Experiments:
[1] = Fluorescence-based cell-based high throughput dose response assay for inhibitors of the interaction of nucleotide-binding oligomerization domain containing 2 (NOD2) and the receptor-interacting serine-threonine kinase 2 (RIPK2).; assay type: functional; conditions: Homo sapiens
[2] = biological target: Heat shock protein HSP 90-alpha (Homo sapiens, UniProt P07900); assay type: functional, organism-based
Caspase-8 = Caspase-8 (Homo sapiens, UniProt Q14790); assay: caspase-8 inhibition counter-screen, dose response, selectivity assay for caspase-6 inhibitor project, biochemical, Z-IETD-R110 fluorescence, cherry-picked samples (AID 743294)
Caspase-7 = biological target: T1, Caspase-7 (Homo sapiens, UniProt P55210); assay: human caspase-7 inhibitors, dose response, selectivity assay for caspase-6 inhibitor project, biochemical, DEVD-R110 fluorescence, cherry-pick (AID 743295)
T1 sequence (P55210 whole entry): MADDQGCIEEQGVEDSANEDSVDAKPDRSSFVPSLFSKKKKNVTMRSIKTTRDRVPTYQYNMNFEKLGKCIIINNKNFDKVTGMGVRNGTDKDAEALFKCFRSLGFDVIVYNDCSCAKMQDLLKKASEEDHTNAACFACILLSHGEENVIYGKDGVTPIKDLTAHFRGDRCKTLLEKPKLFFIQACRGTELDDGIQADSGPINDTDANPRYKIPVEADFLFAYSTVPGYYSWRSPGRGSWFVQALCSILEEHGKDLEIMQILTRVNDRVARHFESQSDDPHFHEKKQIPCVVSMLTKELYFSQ

Caspase-6 = biological target: T2, Caspase-6 (Homo sapiens, UniProt P55212); assay: human caspase-6 inhibitors, dose response, biochemical, VEID-R110 fluorescence, cherry-pick (AID 720632)
T2 sequence (P55212 whole entry): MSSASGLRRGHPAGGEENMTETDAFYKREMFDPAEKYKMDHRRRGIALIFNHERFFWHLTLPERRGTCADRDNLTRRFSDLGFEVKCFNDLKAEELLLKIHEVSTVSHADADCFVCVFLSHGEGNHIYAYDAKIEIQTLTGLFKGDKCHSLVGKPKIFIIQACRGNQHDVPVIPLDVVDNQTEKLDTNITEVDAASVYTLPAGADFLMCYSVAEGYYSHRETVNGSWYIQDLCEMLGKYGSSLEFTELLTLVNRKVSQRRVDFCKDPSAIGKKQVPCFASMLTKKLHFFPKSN

Caspase-3 = biological target: T3, Caspase-3 (Homo sapiens, UniProt P42574); assay type: functional;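 note: Dose-response selectivity test against caspase-3 for candidate inhibitors of sentrin-specific proteases (SENPs)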
T3 sequence (P42574 whole entry): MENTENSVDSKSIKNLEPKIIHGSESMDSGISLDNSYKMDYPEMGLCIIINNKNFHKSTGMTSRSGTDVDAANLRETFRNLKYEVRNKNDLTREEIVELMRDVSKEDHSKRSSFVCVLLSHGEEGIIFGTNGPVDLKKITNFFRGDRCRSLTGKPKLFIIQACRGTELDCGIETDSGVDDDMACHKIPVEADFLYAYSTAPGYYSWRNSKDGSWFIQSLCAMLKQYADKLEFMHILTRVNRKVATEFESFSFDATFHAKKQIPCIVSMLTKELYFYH

[3] = biological target: T4, Mitochondrial peptide methionine sulfoxide reductase (Bos taurus, UniProt P54149); assay: Absorbance-based biochemical high throughput dose response assay for activators of Methionine sulfoxide reductase A (MsrA).; assay type: functional
[4] = biological target: T5, Sentrin-specific protease 7 (Homo sapiens, UniProt Q9BQF6); assay type: functional;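 note: Luminescence-based dose-response confirmation of ultra-high-throughput screening hits, measuring inhibition of SENP7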
T5 sequence (Q9BQF6 whole entry): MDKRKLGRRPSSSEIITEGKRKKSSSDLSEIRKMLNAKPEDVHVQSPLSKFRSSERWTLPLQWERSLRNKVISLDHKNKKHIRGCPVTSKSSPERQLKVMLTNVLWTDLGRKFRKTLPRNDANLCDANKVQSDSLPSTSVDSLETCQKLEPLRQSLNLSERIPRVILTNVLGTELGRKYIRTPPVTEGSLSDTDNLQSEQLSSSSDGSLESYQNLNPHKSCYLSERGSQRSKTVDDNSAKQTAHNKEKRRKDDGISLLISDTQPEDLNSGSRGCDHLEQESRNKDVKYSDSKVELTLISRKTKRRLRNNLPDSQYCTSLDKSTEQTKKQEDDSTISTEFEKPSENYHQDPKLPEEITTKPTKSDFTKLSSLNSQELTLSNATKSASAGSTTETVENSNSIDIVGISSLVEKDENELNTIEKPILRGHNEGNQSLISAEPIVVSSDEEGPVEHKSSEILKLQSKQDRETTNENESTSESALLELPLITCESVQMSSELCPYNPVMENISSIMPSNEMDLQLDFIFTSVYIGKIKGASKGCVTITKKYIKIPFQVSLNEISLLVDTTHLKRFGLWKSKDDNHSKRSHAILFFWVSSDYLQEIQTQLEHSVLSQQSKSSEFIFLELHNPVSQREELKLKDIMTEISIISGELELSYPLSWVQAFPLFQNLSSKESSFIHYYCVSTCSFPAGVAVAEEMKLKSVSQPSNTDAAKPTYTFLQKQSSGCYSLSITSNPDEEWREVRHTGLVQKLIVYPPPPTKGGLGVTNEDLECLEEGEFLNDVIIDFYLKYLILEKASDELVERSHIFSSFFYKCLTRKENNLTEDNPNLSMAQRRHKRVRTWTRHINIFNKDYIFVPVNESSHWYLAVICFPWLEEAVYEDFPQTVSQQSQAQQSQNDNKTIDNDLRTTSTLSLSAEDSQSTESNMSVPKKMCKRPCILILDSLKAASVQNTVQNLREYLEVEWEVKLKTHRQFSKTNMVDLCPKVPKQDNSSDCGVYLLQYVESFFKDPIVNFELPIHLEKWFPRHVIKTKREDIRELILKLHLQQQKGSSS

[5] = biological target: T6, Sentrin-specific protease 8 (Homo sapiens, UniProt Q96LD8); assay type: functional;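 note: luminescence read-out of SENP8 inhibition, dose-response confirmation following an ultra-high-throughput screen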
T6 sequence (Q96LD8 whole entry): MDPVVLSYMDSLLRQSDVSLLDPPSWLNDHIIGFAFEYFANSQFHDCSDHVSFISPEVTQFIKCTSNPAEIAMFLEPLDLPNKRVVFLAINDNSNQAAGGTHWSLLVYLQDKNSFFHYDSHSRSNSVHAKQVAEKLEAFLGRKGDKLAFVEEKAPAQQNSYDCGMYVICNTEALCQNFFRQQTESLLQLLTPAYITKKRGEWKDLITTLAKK

Caspase-9 = Caspase-9 (Homo sapiens, UniProt P55211); assay: caspase-9 enzyme inhibition, dose response, selectivity assay for caspase-6 inhibitor project, biochemical, fluorescence, plate reader, cherry-picked samples (AID 743293)
[6] = biological target: T7, Sentrin-specific protease 6 (Homo sapiens, UniProt Q9GZR1); assay type: functional;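 note: Luminescence-based dose-response confirmatory assay of SENP6 inhibition, following up an ultra-high-throughput screen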
T7 sequence (Q9GZR1 whole entry): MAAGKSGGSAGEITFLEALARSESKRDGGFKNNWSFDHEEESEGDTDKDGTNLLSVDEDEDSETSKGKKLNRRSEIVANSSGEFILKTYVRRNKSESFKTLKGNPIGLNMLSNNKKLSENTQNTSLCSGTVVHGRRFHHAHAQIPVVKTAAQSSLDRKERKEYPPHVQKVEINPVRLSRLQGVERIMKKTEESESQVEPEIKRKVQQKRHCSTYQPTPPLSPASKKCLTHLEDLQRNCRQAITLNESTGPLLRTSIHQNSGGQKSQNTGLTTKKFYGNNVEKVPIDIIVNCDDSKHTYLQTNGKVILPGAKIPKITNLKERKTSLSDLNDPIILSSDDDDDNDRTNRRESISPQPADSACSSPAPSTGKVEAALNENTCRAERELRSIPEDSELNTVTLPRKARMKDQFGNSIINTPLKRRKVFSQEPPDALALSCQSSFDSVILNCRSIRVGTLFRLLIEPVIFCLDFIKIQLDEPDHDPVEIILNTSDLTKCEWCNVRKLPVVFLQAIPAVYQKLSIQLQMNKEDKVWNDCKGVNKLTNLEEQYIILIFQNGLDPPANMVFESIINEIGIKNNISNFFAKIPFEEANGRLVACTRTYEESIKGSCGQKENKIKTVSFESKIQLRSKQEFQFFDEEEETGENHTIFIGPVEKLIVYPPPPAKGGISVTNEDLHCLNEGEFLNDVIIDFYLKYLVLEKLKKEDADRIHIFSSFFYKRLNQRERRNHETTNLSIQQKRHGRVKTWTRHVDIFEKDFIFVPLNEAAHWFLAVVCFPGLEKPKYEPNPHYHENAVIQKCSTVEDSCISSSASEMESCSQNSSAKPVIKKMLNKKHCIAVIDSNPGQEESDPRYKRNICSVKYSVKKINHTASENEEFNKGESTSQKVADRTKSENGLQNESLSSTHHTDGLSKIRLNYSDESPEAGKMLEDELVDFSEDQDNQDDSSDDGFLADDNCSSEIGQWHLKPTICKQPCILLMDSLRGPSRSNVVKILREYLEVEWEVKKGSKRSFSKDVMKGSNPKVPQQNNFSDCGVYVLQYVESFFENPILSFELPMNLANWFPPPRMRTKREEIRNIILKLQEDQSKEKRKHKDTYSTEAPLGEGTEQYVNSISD

[7] = biological target: T8, ATP-dependent translocase ABCB1 (Homo sapiens, UniProt P08183); assay: ABCG2 efflux pump inhibitor potency, dose response, Ig-MXP3 cells, JC-1, flow cytometry, set 2 (AID 504566); assay type: functional; conditions: read-out: EC50_MICROM_;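 note: flow cytometry median green fluorescence of retained JC-1 dye; potency of efflux pump inhibition measured as rising substrate retention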
[8] = biological target: T8, ATP-dependent translocase ABCB1; assay: ABCB1 efflux inhibitor potency, dose response, Jurkat-DNR cells, JC-1, flow cytometry, set 2 (AID 504569); assay type: functional; conditions: read-out: EC50_MICROM_;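 note: potency of pump inhibitors that raise cellular JC-1 green fluorescence up to the nicardipine level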
[9] = biological target: T4, Mitochondrial peptide methionine sulfoxide reductase; assay type: functional
Vero [10] = assay: cells; assay type: functional, Chlorocebus sabaeus
[11] = cytotoxicity in HPDE-C7 cells, cell-based, fluorescence, HTS (AID 430); assay type: functional; conditions: Homo sapiens
[12] = biological target: Aryl hydrocarbon receptor (Homo sapiens, UniProt P35869); conditions: Potency;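 note: confirmatory quantitative high-throughput screen measuring activation of the AhR signaling pathway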
H9c2 = assay: cells; assay type: functional, cell-based; conditions: Rattus norvegicus, H9c2, Myocardium;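 note: confirmatory concentration-response retest of ultra-high-throughput screening hits for modulation of myocardial damage; cell death induced by hydrogen peroxide oxidative stress; compound pretreatment for 60 min then peroxide exposure for 2 h; potency is for protecting the cells against peroxide damage rather than for killing them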
[13] = cytotoxicity in KRAS-transformed pancreatic duct cells, primary screen, cell-based, fluorescence, HTS (AID 431); assay type: functional; conditions: Homo sapiens;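 note: cell line used: HPDE-C7K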
[14] = enhancers of respiration in Yfh1-depleted yeast, dose response, Friedreich's ataxia, plus single-dose screen (AID 1465); assay type: functional;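 note: yeast depleted of Yfh1p frataxin homolog grown on glycerol needing respiration; WST-1 tetrazolium dye reduction as measure of cellular dehydrogenase metabolic activity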
Vero [15] = assay: cells; assay type: functional, cell-based; conditions: Chlorocebus sabaeus
[16] = StAR promoter reporter inhibition counter-screen, dose response, counter-screen for LRH-1 inverse agonist project, cell-based, luminescence, luciferase reporter (AID 651969); assay type: functional
[17] = biological target: T9, Polyadenylate-binding protein 1 (Homo sapiens, UniProt P11940); assay: PABP1 MLLE–PAM2 interaction inhibitors, dose response, miRNA deadenylation inhibitor project, biochemical, fluorescence polarization, Cy5-PAM2 peptide, secondary (AID 602260); assay type: functional; conditions: read-out: IC50_Mean
[18] = biological target: T9, Polyadenylate-binding protein 1; assay: PABP1 MLLE–PAM2 binding inhibitor potency, dose response, biochemical, fluorescence polarization, FITC-PAM2 peptide (AID 602259); assay type: functional; conditions: read-out: IC50_Mean
[19] = biological target: Nuclear receptor subfamily 5 group A member 2 (Homo sapiens, UniProt O00482); assay type: functional, cell-based;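 note: HEK293T cells transfected with LRH-1 and a StAR promoter luciferase reporter; potency for inhibitors that lower LRH-1 driven reporter light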
Steroidogenic factor 1 = Steroidogenic factor 1 (Homo sapiens, UniProt Q13285); assay: Counterscreen for inverse agonists of the liver receptor homolog-1 (LRH-1; NR5A2): Luminescence-based cell-based high throughput dose response assay to identify inverse agonists of the Steroidogenic Factor 1 Nuclear Receptor (SF1; NR5A1).; assay type: functional
Steroidogenic factor 1, sequence (Q13285 whole entry): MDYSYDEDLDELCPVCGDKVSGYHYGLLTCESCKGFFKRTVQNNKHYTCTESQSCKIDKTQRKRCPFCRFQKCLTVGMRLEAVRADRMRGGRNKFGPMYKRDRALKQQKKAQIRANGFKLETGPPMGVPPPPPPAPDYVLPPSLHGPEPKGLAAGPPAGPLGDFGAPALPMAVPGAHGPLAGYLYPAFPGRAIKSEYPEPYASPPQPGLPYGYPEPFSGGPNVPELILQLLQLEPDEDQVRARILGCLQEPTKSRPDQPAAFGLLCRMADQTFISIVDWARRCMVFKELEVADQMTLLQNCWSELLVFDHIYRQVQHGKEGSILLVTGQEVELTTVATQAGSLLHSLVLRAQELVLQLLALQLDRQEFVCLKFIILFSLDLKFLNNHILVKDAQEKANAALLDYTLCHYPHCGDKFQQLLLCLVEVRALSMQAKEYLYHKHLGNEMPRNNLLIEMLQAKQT

T4 sequence (P54149 whole entry): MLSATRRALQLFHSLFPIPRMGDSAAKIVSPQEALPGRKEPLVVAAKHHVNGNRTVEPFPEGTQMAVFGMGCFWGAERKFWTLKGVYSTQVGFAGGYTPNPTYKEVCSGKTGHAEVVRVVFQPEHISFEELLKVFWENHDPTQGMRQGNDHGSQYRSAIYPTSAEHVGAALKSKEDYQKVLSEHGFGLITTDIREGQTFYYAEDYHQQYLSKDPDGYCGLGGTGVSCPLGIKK
T8 sequence (P08183 whole entry): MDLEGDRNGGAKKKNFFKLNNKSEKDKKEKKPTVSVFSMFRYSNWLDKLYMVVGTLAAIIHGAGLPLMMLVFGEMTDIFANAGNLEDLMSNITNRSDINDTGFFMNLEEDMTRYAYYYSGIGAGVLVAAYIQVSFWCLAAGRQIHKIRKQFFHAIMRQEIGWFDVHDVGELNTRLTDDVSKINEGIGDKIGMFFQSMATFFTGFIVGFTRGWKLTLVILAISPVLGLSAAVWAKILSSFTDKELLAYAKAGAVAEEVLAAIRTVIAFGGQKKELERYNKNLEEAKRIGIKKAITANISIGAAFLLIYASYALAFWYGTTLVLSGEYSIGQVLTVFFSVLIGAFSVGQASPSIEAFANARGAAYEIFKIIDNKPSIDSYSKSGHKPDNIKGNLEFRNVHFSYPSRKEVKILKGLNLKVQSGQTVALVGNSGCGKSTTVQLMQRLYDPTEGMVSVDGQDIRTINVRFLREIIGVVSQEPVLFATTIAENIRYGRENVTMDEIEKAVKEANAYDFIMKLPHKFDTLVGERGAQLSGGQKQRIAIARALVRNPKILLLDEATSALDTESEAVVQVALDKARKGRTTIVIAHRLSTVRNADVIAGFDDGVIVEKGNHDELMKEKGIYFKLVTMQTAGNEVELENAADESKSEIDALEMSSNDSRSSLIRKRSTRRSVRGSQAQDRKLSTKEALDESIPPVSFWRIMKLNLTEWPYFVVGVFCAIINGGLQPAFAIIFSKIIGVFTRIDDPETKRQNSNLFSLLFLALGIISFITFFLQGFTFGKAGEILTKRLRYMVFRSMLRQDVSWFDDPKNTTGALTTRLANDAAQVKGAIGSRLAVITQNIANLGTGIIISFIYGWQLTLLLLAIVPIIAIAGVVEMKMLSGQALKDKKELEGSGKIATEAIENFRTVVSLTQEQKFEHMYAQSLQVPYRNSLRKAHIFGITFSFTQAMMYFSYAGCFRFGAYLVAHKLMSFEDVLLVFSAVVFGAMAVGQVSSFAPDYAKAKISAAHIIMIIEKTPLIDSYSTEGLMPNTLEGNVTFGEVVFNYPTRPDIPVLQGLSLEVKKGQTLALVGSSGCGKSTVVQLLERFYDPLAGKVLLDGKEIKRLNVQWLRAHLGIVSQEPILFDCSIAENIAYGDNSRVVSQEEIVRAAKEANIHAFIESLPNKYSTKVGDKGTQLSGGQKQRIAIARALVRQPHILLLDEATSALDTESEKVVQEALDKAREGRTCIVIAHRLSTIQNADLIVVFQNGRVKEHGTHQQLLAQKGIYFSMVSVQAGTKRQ
T9 sequence (P11940 whole entry): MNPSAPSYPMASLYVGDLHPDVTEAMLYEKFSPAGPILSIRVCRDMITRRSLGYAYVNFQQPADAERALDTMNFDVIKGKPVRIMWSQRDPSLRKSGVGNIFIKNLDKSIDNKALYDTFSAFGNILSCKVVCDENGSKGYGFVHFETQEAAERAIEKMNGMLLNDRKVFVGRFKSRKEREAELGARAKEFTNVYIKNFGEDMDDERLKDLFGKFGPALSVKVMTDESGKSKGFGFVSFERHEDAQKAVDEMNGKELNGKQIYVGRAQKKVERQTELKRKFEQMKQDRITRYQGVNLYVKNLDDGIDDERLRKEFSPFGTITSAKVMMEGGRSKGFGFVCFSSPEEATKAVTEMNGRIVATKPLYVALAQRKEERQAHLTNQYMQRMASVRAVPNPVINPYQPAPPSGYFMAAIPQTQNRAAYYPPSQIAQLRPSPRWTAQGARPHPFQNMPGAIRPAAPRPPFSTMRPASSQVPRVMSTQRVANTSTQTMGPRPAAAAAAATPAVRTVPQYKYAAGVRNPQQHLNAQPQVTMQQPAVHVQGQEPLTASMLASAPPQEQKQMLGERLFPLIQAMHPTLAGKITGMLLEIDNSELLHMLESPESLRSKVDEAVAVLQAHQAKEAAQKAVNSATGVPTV
Nuclear receptor subfamily 5 group A member 2, sequence (O00482 whole entry): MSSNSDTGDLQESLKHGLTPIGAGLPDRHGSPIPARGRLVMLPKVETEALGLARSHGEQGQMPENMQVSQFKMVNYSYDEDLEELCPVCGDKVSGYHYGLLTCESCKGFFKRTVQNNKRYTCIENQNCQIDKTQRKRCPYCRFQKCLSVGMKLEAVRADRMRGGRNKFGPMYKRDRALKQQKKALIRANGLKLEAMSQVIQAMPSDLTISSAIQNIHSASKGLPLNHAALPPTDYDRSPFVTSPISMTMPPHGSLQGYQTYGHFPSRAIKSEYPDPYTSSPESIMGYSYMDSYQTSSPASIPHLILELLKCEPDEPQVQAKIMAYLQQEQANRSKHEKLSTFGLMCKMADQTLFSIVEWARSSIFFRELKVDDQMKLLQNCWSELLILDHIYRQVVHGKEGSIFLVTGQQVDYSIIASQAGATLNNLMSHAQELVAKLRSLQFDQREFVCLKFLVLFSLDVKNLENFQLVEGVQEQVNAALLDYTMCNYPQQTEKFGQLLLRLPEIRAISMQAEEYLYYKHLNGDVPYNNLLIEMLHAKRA
Aryl hydrocarbon receptor, sequence (P35869 whole entry): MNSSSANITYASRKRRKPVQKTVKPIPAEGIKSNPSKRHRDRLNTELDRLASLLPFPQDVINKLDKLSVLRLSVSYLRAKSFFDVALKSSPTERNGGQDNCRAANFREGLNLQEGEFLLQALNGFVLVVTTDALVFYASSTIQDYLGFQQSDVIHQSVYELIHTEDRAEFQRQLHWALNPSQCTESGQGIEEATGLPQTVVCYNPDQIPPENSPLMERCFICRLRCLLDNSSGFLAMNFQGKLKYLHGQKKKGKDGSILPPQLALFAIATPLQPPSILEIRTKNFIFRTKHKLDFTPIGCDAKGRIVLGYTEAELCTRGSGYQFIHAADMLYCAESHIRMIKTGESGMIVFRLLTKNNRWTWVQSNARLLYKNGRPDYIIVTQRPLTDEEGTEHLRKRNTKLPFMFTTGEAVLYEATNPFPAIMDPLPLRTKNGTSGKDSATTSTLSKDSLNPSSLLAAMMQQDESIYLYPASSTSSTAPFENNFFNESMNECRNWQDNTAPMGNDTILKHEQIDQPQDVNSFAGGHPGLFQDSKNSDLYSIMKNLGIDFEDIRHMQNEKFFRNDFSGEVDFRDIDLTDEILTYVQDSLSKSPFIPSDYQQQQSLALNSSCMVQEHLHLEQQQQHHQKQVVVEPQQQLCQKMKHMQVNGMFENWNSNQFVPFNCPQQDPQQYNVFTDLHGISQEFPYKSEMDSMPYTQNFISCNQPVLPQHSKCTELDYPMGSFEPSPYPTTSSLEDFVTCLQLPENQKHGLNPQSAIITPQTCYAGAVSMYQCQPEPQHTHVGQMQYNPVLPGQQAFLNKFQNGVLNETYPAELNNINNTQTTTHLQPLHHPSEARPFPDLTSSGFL
Caspase-8, sequence (Q14790 217-374 limits assumed): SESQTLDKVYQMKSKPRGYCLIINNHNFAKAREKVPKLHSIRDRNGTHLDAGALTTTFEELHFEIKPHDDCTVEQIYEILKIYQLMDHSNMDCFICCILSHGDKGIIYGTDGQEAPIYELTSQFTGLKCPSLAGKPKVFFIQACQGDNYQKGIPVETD
Caspase-8, sequence (Q14790 385-479 limits assumed): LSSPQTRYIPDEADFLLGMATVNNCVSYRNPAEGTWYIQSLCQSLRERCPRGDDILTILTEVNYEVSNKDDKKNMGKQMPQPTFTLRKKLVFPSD
Caspase-9, sequence (P55211 1-315 limits assumed): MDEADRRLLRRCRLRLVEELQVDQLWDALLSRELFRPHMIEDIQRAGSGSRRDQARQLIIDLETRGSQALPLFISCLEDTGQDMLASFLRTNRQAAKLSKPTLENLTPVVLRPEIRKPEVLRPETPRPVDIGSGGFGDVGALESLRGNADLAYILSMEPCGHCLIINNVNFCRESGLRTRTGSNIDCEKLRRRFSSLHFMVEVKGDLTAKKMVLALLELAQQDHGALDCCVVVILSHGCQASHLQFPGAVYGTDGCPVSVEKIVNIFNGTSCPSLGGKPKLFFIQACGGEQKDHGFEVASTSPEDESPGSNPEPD
Caspase-9, sequence (P55211 331-416 limits assumed): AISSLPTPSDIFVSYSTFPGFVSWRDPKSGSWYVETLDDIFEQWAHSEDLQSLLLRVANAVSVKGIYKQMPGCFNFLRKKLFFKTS

COc1ccc(C2=CC(=O)N(Nc3ccccc3)C2=O)cc1
IC50 [1]: 4.21 µM (active)

COc1ccccc1NC(=O)COC(=O)c1ccc([N+](=O)[O-])s1
AC50 [2]: 6.12 µM (active)
AC50 (Caspase-8): 22 µM (active)
AC50 (Caspase-7): 16.4 µM (active)
AC50 (Caspase-6): 1.95 µM (active)
IC50 (Caspase-3): 11.5 µM (active)
EC50 [3]: 39.4 µM (inactive)
IC50 [4]: 7.35 µM (active)
IC50 [5]: 3.83 µM (active)
AC50 (Caspase-9): 23.7 µM (active)
IC50 [6]: 4.94 µM (active)

O=C(c1ccco1)N1CCN(c2cc(-c3ccccc3)nc3cc(-c4ccc(F)cc4)nn23)CC1
EC50 [7]: 1.05 µM (active)
EC50 [8]: 3.4 µM (active)

Cc1ccccc1/C=N/n1c(S)nnc1C1CCCCC1
IC50 [9]: 155 µM (inactive)

COc1cc(/C=C/C(=O)CC(=O)/C=C/c2ccc(O)c(OC)c2)ccc1O [CURCUMIN]
CC50 (Vero [10]): 19.5 µM (active)
CC50 (Vero [10]; Chlorocebus sabaeus, Vero): 19.9 µM (active)
EC50 [11]: 13.1 µM (active)
AC50 [12]: 56.2 µM (inconclusive)
IC50 (H9c2): > 79 µM (inactive)
EC50 [13]: 6.97 µM (active)
EC50 [14]: > 100 µM (active)
IC50 (Vero [15]): > 25 µM (active)

O=C(CSc1nnc(CNC(=O)c2ccccc2F)o1)Nc1ccc2c(c1)OCCO2
IC50 [16]: 35.9 µM (inactive)
IC50 [17]: > 66 µM (inactive)
IC50 [18]: > 66 µM (inactive)
IC50 [19]: 17.6 µM (inactive)
IC50 (Steroidogenic factor 1): 1.56 µM (active)
